According to a melting point compilation (Tetko et al.):

With `CC(=O)c1ccc(C#N)s1` the melting point was 78 °C.
With `Cn1c(=O)c(C2=NNC(=O)C2=NNc2ccccc2)c(O)c2ccccc21` the melting point was 213 °C.
In the case of `O=C(C[N+](=O)[O-])c1cccc(C(=O)C[N+](=O)[O-])c1`, the melting point is reported as 160 °C.
`C=C1C(=O)C23C(OC(C)=O)CC4C(C)(C)CCC(OC(C)=O)C4(C)C2C(OC(C)=O)CC12OC(C)(C)OC23` (stereo unspecified) showed a melting point of 259 °C.
Compound `CC(=O)CC(c1ccco1)c1c(O)c2ccccc2oc1=O` (stereo unspecified) has a melting point of 124 °C.
With `NNC(=O)Cc1ccccc1` the melting point was 115 to 117 °C.
`CC(NC(C)(C)C)C(=O)c1cccc(Cl)c1` (stereo unspecified) showed a melting point of 234 °C.
For `COc1cc2c(cc1OC)C(C(=O)O)C2` (stereo unspecified), the melting point was 134 to 143 °C.
For `N=C(N)NCCC[C@H](NC(=O)OCc1ccccc1)C(=O)O`, the melting point was 173 to 175 °C.
`CCCCC#Cc1cncc(C(=O)NN)c1` showed a melting point of 158 to 161 °C.
In the case of `CC(=C/C=N/NC(N)=O)C(C)(C)C`, the melting point is reported as 148 °C.
Compound `C[Si](C)(C)N=C=S` has a melting point of -32.8 °C.
Compound `NS(=O)(=O)c1ccc(F)c(C(F)(F)F)c1` has a melting point of 162 °C.
Work on `NC(=O)c1ccc(-c2ccccn2)s1` yielded a melting point of 197 to 199 °C.
Compound `O=C(c1ccccc1)c1ccc2c(c1)OCCCO2` has a melting point of 72 to 75 °C.
Work on `N#CCSc1ccc2ccccc2c1` yielded a melting point of 83 to 86 °C.
Work on `CC=C1CCC2C3CC=C4CC(OC(C)=O)CCC4(C)C3CCC12C` (stereo unspecified) yielded a melting point of 137 °C.
With `O=C(c1ccccc1)c1ccc(Cl)c([N+](=O)[O-])c1` the melting point was 105 °C.
`CCC1(OC(C)=O)CCC2(C)C(CCC3C4CCC(=O)C4(C)CCC32)C1` (stereo unspecified) showed a melting point of 150 to 152 °C.
Compound `Clc1cc(Cl)c2c(oc3c(Cl)cccc32)c1Cl` has a melting point of 177 °C.
`O=C(O)c1c(F)c(F)c(F)c(F)c1[N+](=O)[O-]` showed a melting point of 134 to 139 °C.
Work on `N#Cc1ccccc1N=C=S` yielded a melting point of 119 to 120 °C.
`COc1ccc(CCN2CC(C(=O)O)CC2=O)cc1OC` (stereo unspecified) gave a melting point of 127 to 131 °C.
With `COP(=S)(OC)Oc1cc(Cl)c(Cl)cc1Cl` the melting point was 41 °C.
In the case of `COc1ccc(C=CC(=O)OCCOc2ccc(C=CC(=O)c3ccccc3)cc2)cc1`, the melting point is reported as 142 °C.
Work on `O=C(O)CCc1cccc(Br)c1` yielded a melting point of 76 to 78 °C.
Compound `O=Cc1ccc(-c2ccc(Cl)cc2)o1` has a melting point of 128 to 131 °C.
For `N#Cc1c(-c2cccc(O)c2)c(C#N)c(=O)n(N)c1N`, the melting point was 323 °C.
Work on `CCCCCCCCC=CCCCCCCCCCCCCO` yielded a melting point of 35 °C.
`O=C(CBr)c1cc2ccccc2o1` gave a melting point of 89 to 90 °C.
`CCOC(=O)c1cc(C(C)(C)C)nn1Cc1c(C)cc(C)cc1C` showed a melting point of 72 to 74 °C.
In the case of `O=C(O)c1cccc(N2CCCCC2)n1`, the melting point is reported as 98 to 101 °C.
`O=C1NC(=O)C(=Cc2ccc(-c3ccccc3Br)o2)C(=O)N1` showed a melting point of 255 °C.
With `CCC1CN2CCc3cc(OC)c(OC)cc3C2CC1CC1NCCc2cc(O)c(OC)cc21` (stereo unspecified) the melting point was 116 °C.
In the case of `NC(=O)CC(N)=O`, the melting point is reported as 169 °C.
Work on `Cc1ccc(NN=c2c(C)nc3ccccc3[nH]c2=O)cc1` yielded a melting point of 179 °C.
In the case of `Nc1ccc(CO)cc1`, the melting point is reported as 61 °C.
For `COc1ccc(C=NN=Cc2ccc(OC)cc2)cc1`, the melting point was 167 to 168 °C.
Compound `Cc1nc(-c2cccc(Br)c2)no1` has a melting point of 81 to 83 °C.
Compound `O=Cc1ccc(N2CCOCC2)c([N+](=O)[O-])c1` has a melting point of 53 to 55 °C.
In the case of `O=C(CBr)C(c1ccccc1)c1ccccc1`, the melting point is reported as 64 to 66 °C.
Compound `COC(=O)c1cc(C(=O)O)cc([N+](=O)[O-])c1` has a melting point of 183 °C.
`CCOC(=O)Nc1c([N+](=O)[O-])cc(C)cc1[N+](=O)[O-]` showed a melting point of 65 °C.
`CC12CC3(C)CC(C)(C1)CC(C(=O)O)(C2)C3` gave a melting point of 149 to 151 °C.
With `COc1ccc(S(=O)(=O)Cl)cc1F` the melting point was 79 °C.
`CCOC(=O)c1cn2ccccc2n1` gave a melting point of 80 to 83 °C.
With `CC(C)C(=O)NN` the melting point was 97 to 100 °C.
For `OCc1cc(-c2ccccc2)on1`, the melting point was 99 to 102 °C.
`C=CCc1c(O)c(C(=O)c2ccccc2)cc(C(=O)c2ccccc2)c1O` showed a melting point of 161 °C.
In the case of `Clc1cc(I)ccn1`, the melting point is reported as 43 °C.
Work on `Cc1cc(C(F)(F)F)n2nc(N)c(/N=N/c3cc(Cl)c(Cl)cc3Cl)c2n1` yielded a melting point of 228 °C.
Compound `O=c1ccoc2ccccc12` has a melting point of 59 °C.
`N#Cc1ccc(-c2nccs2)cc1` gave a melting point of 102 to 103 °C.
In the case of `O=C(CBr)Oc1ccc([N+](=O)[O-])cc1`, the melting point is reported as 86 °C.
Compound `COC(=O)[C@@H]1[C@H](c2ccccc2)C(C#N)=C(C(SC)SC)[C@@]1(O)c1ccccc1` has a melting point of 164 to 165 °C.
With `CN(C)c1nncc(-c2cnnc(N(C)C)n2)n1` the melting point was 224 °C.
`Cc1ccc(C=NC2=NC(C(F)(F)F)N=N2)cc1` (stereo unspecified) gave a melting point of 208 °C.
Compound `c1ccc(Oc2ccc(Oc3ccccc3)cc2)cc1` has a melting point of 73 to 77 °C.
With `Fc1ccc2c3c([nH]c2c1)CNCC3` the melting point was 224 °C.
With `Ic1ccc(N2CCOCC2)nc1` the melting point was 133 °C.
In the case of `Cc1cc(Br)cc(C)c1N=C=O`, the melting point is reported as 61 °C.
Compound `O=C1NC(=O)C(=NNc2cccc([N+](=O)[O-])c2)C(=O)N1` has a melting point of 270 °C.
For `Brc1ccc(-c2nc(-c3ccccc3)c(-c3ccccc3)[nH]2)cc1`, the melting point was 252 to 260 °C.
With `CC12CCCC1C1CCC3CC4(CCC3(C)C1CC2)OCCO4` (stereo unspecified) the melting point was 117 °C.
`O=c1ccc2cc(OC3OC(CO)C(O)C(O)C3O)c(O)cc2o1` (stereo unspecified) showed a melting point of 205 °C.
`C1CCC(P(CP(C2CCCCC2)C2CCCCC2)C2CCCCC2)CC1` gave a melting point of 99 °C.
`O=C1C=C(NCc2ccncc2)C(=O)c2ccccc21` showed a melting point of 166 °C.
`N#CC(OC1OC(COC2OC(CO)C(O)C(O)C2O)C(O)C(O)C1O)c1ccccc1` (stereo unspecified) gave a melting point of 224 °C.
`COc1ccccc1N=Nc1ccccc1` showed a melting point of 41 °C.
In the case of `CC(C)(C)OC(=O)N[C@@H](CSCc1ccccc1)C(=O)O`, the melting point is reported as 85 to 88 °C.
In the case of `Cc1cc(Sc2ccc(C(=O)O)cc2[N+](=O)[O-])c(C)cc1Cl`, the melting point is reported as 243 to 248 °C.
In the case of `COC(=O)CSc1cc(N=c2sc(=O)n3n2CCCC3)c(F)cc1Cl`, the melting point is reported as 106 °C.
For `CC(C)(C)Oc1ccc(O)cc1`, the melting point was 152 °C.
`Nc1c([N+](=O)[O-])cnc2ccccc12` gave a melting point of 273 to 275 °C.
With `Cc1cc(C)oc(=O)c1` the melting point was 51.5 °C.
In the case of `Cc1ccc2cc(Cl)c(Cl)cc2n1`, the melting point is reported as 121 to 123 °C.
Compound `CC(C)(NO)C(=NO)c1ccccc1` has a melting point of 153 to 154 °C.
Work on `Cc1cc(Br)ncc1Br` yielded a melting point of 38 °C.
`CCCC=C1C(=O)C2(C)CCC1C2(C)C` (stereo unspecified) showed a melting point of 120 °C.
`CCOC(=O)c1[nH]c(C)c(C(C)=O)c1C` showed a melting point of 146 to 147 °C.
`CC(=NNC(=O)c1ccncc1)c1ccco1` showed a melting point of 199 °C.
`ClC(Br)C(Cl)Br` (stereo unspecified) gave a melting point of -26 °C.
With `CCOC(=O)C1N=C(c2ccccc2F)c2cc(Cl)ccc2NC1=O` (stereo unspecified) the melting point was 194 °C.
`CC12CCc3c(ccc4cc(O)ccc34)C1(C)CCC2=O` (stereo unspecified) showed a melting point of 261 °C.
With `O=C(c1ccccc1)c1cc([N+](=O)[O-])ccc1Cl` the melting point was 83 to 86 °C.
Compound `CCCCCCCCCCCCCCCCCCCCCCCCCCCCCC[Si](C)(C)Cl` has a melting point of 60 to 80 °C.
`c1cc2c(c(NC3=NCCN3)c1)CCCC2` showed a melting point of 142 °C.
With `O=C(O)CCc1cccc(Cl)c1` the melting point was 72 to 74 °C.
Compound `O=C(OC(=O)C(c1ccccc1)c1ccccc1)C(c1ccccc1)c1ccccc1` has a melting point of 98 °C.
In the case of `CCCCC(CC)CCl` (stereo unspecified), the melting point is reported as -70 °C.
`C(=C\c1nn2c(COc3ccccc3)nnc2s1)/c1ccccc1` showed a melting point of 141 to 143 °C.
Compound `NC1(C(=O)O)CC1` has a melting point of 257 °C.
`Nc1cc(C(=O)O)ccc1O` showed a melting point of 198 to 205 °C.
In the case of `CCC1OC(=O)C(O)=C1C` (stereo unspecified), the melting point is reported as 27 to 30 °C.
`NC1=C(Cl)C(=O)c2ccccc2C1=O` showed a melting point of 201 °C.
In the case of `N#Cc1c(F)c(F)c(F)c(F)c1C#N`, the melting point is reported as 83 °C.
Compound `NC1c2ccccc2CC1O` (stereo unspecified) has a melting point of 117 to 121 °C.
Work on `Cc1cc(N2CCNCC2)c2ccccc2n1` yielded a melting point of 101 to 103 °C.
Work on `N#C/C(=N/Nc1cccc(C(F)(F)F)c1)c1nc2ccccc2c(=O)[nH]1` yielded a melting point of 238 °C.
`CC(Nc1ccccn1)=C(C#N)C(=O)c1ccccc1` gave a melting point of 151 to 152 °C.
`O=C1C=C(NCc2ccccn2)C(=O)c2ccccc21` showed a melting point of 149 °C.
`O=C(O)Cc1cccc(F)c1F` showed a melting point of 118 °C.
Compound `CCCCCCCC(=O)Oc1c(I)cc(C#N)cc1I` has a melting point of 59.5 °C.
For `O=Cc1ccc(N2CCCC2)cn1`, the melting point was 101 to 102 °C.
With `O=S(=O)(O)c1ccc(-c2ccc(S(=O)(=O)O)cc2)cc1` the melting point was 72.5 °C.
`O=Cc1ccccc1N1CCN(c2ccc(C(F)(F)F)cn2)CC1` showed a melting point of 106 to 107 °C.
For `CCCCCCCCCCCCC(Br)C(=O)O` (stereo unspecified), the melting point was 42 °C.
Compound `Cc1cc(C)c(C=O)[nH]1` has a melting point of 90 to 91 °C.
Work on `CCOC(=O)C1C(c2ccc(OC)cc2)C(C(=O)OCC)C(O)(C(F)(F)F)NC1(O)C(F)(F)F` (stereo unspecified) yielded a melting point of 109 °C.
`O=Cc1cccc2c1OCC2` showed a melting point of 54 to 55 °C.
With `CN1CCN(Cc2ccc(C#N)cc2)CC1` the melting point was 69 to 71 °C.
With `O=C(O)c1c(F)cnc(F)c1F` the melting point was 110 °C.
Compound `COC(=O)C1=C(C)NC(=O)NC1c1cccc(OC)c1O` (stereo unspecified) has a melting point of 208 °C.
`CCCCCCCCCCCC(=O)N1CC(=O)NC(=O)C1` gave a melting point of 114 to 116 °C.
With `O=[N+]([O-])c1ccc(Oc2c(Cl)cc(S(=O)(=O)Cl)cc2Cl)c(Cl)c1` the melting point was 159 to 160 °C.
For `CC(=O)OC1CC[C@@]2(C)C(CC[C@@H]3[C@@H]2CC[C@@]2(C)[C@H]3CC[C@]2(O)C#Cc2ccccc2)C1` (stereo partly specified), the melting point was 170 to 171 °C.
In the case of `Cc1cc(C(=O)O)oc1C`, the melting point is reported as 146 to 148 °C.
`Cc1c(C(C)C)c(=O)n(-c2ccccc2)n1C` showed a melting point of 103 °C.
In the case of `Cc1ccc(CC#N)cc1`, the melting point is reported as 18 °C.
With `N#Cc1c(Cl)c(Cl)c(Cl)c(C#N)c1Cl` the melting point was 252 °C.
Compound `CC1=C(C(=O)Nc2ccccc2)S(=O)(=O)CCO1` has a melting point of 120 °C.
`Nc1cc([N+](=O)[O-])c(/C=C/c2ccccc2)cc1/C=C/c1ccccc1` gave a melting point of 111 °C.
`CS(=O)(=O)CCO` showed a melting point of 31 to 33 °C.
`O=C(C1=NOC2C(=O)N(c3ccccc3[N+](=O)[O-])C(=O)C12)c1ccc2ccccc2c1` (stereo unspecified) gave a melting point of 176 °C.
Compound `OCCN1CCN(c2nc3ccc(Cl)cc3s2)CC1` has a melting point of 128 to 130 °C.
Compound `C#CC(C)O` (stereo unspecified) has a melting point of -3 °C.
